The source of these data is US12509437B2, “Substituted thiophene carboxamides and derivatives thereof as microbicides” (Bayer Aktiengesellschaft, priority 2019, dated 2025).

The structures appear in SMILES notation. Marks after values point to notes of the source that are not given here.

Series [1] has as its system Xanthomonas campestris pv. campestris. As to the kind of experiment: In vivo preventive test on Xanthomonas campestris pv. campestris (black rot on cabbage). Conditions: sprayed 72 hours before inoculation, evaluated 8 or 10 days after inoculation; for pest or weed control at 31 ppm / pest or weed control at 500 ppm / pest or weed control at 125 ppm: Xanthomonas campestris, read-out: efficacy; for pest or weed control at 500 ppm: 500 ppm of active ingredient; for pest or weed control at 125 ppm: 125 ppm of active ingredient. Summed up:
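Young cabbage plants sprayed preventively with compound formulated in acetone/DMSO/Tween and diluted in water, then inoculated 72 h later with a bacterial spray. Kept at 27° C, 95% relative humidity; disease scored after 8 or 10 days as % efficacy versus solvent-treated controls (0% = control, 100% = no disease).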

Series [2] concerns Pseudomonas syringae pv. tomato. As to the kind of experiment: In vivo preventive test on Pseudomonas syringae pv. tomato (bacterial speck on tomato). Conditions: sprayed 72 hours before inoculation, evaluated 5 or 6 days after inoculation, read-out: efficacy; for pest or weed control at 500 ppm: 500 ppm of active ingredient; for pest or weed control at 125 ppm: 125 ppm of active ingredient. Here is the method: The tested active ingredients were prepared by homogenization in a mixture of acetone/Dimethyl sulfoxide/Tween®, and then diluted with water to obtain the desired active material concentration.
The young plants of tomato were treated by spraying the active ingredient prepared as described above. Control plants were treated only with an aqueous solution of acetone/Dimethyl sulfoxide/Tween®.
After 72 hours, the plants were contaminated by spraying the leaves with an aqueous bacteria suspension of Pseudomonas syringae pv. tomato. The contaminated tomato plants were incubated for 4 days in saturated atmosphere at 22° C. day/20° C. night−70% HR and then for 1 or 2 days at 22° C. day/20° C. night at 70-80% relative humidity.
The test was evaluated 5 or 6 days after the inoculation. 0% means an efficacy which corresponds to that of the control plants while an efficacy of 100% means that no disease was observed.

The test system of series [3] is Colletotrichum lindemuthianum. As to the kind of experiment: In vivo preventive test on Colletotrichum lindemuthianum (Anthracnose on bean). The following applies: sprayed 72 hours before inoculation, evaluated 6 days after inoculation; for pest or weed control at 125 ppm / pest or weed control at 500 ppm: Colletotrichum lindemuthianum, 144 h, read-out: efficacy; for pest or weed control at 500 ppm: 500 ppm of active ingredient. In a few lines:
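Young bean plants were sprayed with compound in acetone/DMSO/Tween diluted in water, then inoculated 72 h later with C. lindemuthianum spores. Incubation was 24 h at 20 °C/100% RH, then 5 days at 20 °C/90% RH. Efficacy scored 6 days post-inoculation: 0% equals solvent-treated control, 100% means no disease.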

Another series concerns Peronospora parasitica. As to the kind of experiment: In vivo preventive test on Peronospora parasitica (Crucifer downy mildew) on cabbage. Conditions: Hyaloperonospora parasitica, 120 h, sprayed 72 hours before inoculation, evaluated 5 days after inoculation, read-out: efficacy; for pest or weed control at 125 ppm: 125 ppm of active ingredient; for pest or weed control at 31 ppm: 31 ppm of active ingredient; for pest or weed control at 500 ppm: 500 ppm of active ingredient. Summed up: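 Young cabbage plants were sprayed with compound in aqueous acetone/DMSO/Tween, then inoculated 72 h later with P. parasitica spores and held 5 days at 20 °C, 100% RH. Efficacy scored 5 days post-inoculation: 0% equals solvent-treated controls, 100% means no disease.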

A further series deals with Uromyces appendiculatus. As to the kind of experiment: In vivo preventive test on Uromyces appendiculatus (bean rust). The following applies: 240 h, sprayed 72 hours before inoculation, evaluated 10 days after inoculation, read-out: efficacy; for pest or weed control at 31 ppm: 31 ppm of active ingredient; for pest or weed control at 500 ppm: 500 ppm of active ingredient; for pest or weed control at 125 ppm: 125 ppm of active ingredient. Summed up:
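Young bean plants sprayed with compound in acetone/DMSO/Tween diluted in water, then inoculated 72 h later with spore suspension. Incubated 24 h at 20° C., 100% RH, then 9 days at 20° C., 70-80% RH. Efficacy scored 10 days post-inoculation, 0% = untreated-control level, 100% = no disease.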

A short description of series [4]: LogP by HPLC on reversed phase columns (EEC directive 79/831 Annex V.A8). It counts as physicochemical. The following applies: reversed phase HPLC columns; method [a]. Summed up:
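Reversed-phase HPLC, calibrated with straight-chain alkan-2-ones (C3–C16) of known LogP; values by linear interpolation of retention times between successive alkanones. Multiple values from one method are joined by "+"; lambda-max taken from 200–400 nm UV spectra at chromatographic peaks.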

Series [5] deals with salicylate responsive promoter sequence of the PR1 (pathogenesis-related protein I) gene (AT2G14610). As to the kind of experiment: Induction of defense gene expression in Arabidopsis thaliana (PR1 promoter-GFP reporter plants). The class given is in vivo. The following applies: 72 h, 3rd day after spraying, mock treated leaves set as 1.00, read-out: relative fluorescence value. In a few lines: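 Transgenic A. thaliana carrying GFP under the salicylate-responsive PR1 promoter, grown five days, then sprayed with compounds. Whole-plant fluorescence imaged and quantified on day 3 post-spray, expressed relative to mock-treated leaf background set at 1.00.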

The test system of a further series is Alternaria alternata. As to the kind of experiment: Alternaria alternata in vitro cell test. The class given is cell-based. Conditions: 120 h, 5 days incubation, read-out: efficacy (inhibition of fungal growth; no direct activity); for inhibition at 5 ppm: 5 ppm of active ingredient; for inhibition at 20 ppm: 20 ppm of active ingredient. Summed up: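 A. alternata spores in glucose/peptone/yeast-extract liquid medium were exposed to DMSO-solubilized compound (final DMSO ≤1%). After 5 days incubation, mycelium growth read spectrometrically; inhibition derived from absorbance relative to fungicide-free control wells.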

Series [6] deals with Colletotrichum lindemuthianum. As to the kind of experiment: Colletotrichum lindemuthianum in vitro cell test. Conditions: 144 h, 6 days incubation, read-out: efficacy (inhibition of fungal growth; no direct activity); for inhibition at 5 ppm: 5 ppm of active ingredient; for inhibition at 20 ppm: 20 ppm of active ingredient. The class given is cell-based. Summed up:
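C. lindemuthianum spore suspension grown in liquid glucose/peptone/yeast-extract medium with compound (final DMSO ≤1%). After 6 days, mycelial growth measured by absorbance; inhibition calculated versus fungicide-free control wells.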

The test system of series [7] is Xanthomonas campestris pv. campestris. As to the kind of experiment: Xanthomonas campestris pv. campestris in vitro cell test. The class given is cell-based. The following applies: 24 h of incubation, read-out: efficacy (inhibition of bacteria growth; no direct activity); for inhibition at 5 ppm: 5 ppm of active ingredient; for inhibition at 20 ppm: 20 ppm of active ingredient. Summed up:
(§1)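 Bacteria from liquid pre-culture diluted to set OD in LB broth and exposed to compounds dissolved in DMSO (final ≤1%). After 24 h, growth read by absorbance; inhibition derived relative to compound-free control wells.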

Series [8] concerns Pseudomonas syringae pv. tomato. As to the kind of experiment: Pseudomonas syringae pv. tomato in vitro cell test. It counts as cell-based. Conditions: 20 ppm of active ingredient, 24 h of incubation, read-out: efficacy (inhibition of bacteria growth; no direct activity). Summed up:
as §1

With `O=C(NC1(C(=O)O)CC1)c1cc(Br)c(Br)s1` [CMP1, reference compound], in series [1] (31 ppm of active ingredient), the efficacy is 10* % and the pest or weed control at 31 ppm worked out at 10%. The pest or weed control at 500 ppm in [1] was 0%. Further, in [2], the pest or weed control at 500 ppm amounted to 0%.

On to `CCOC(=O)C1(NC(=O)c2cc(Br)c(Br)s2)CC1` [CMP2, reference compound], for which the figures for the pest or weed control at 125 ppm (in series [3] (125 ppm of active ingredient); in the series with Peronospora parasitica) were 0% and less than 30%, respectively. Besides, the pest or weed control at 500 ppm in series [3] was 0%; in series [1] it was 0%; with Uromyces appendiculatus, less than 30%; in [2], less than 40%. For the same molecule, the pest or weed control at 31 ppm in series [1] (31 ppm of active ingredient) is 0%; in the series with Uromyces appendiculatus, less than 40%.

Regarding `O=C(NC(C(=O)O)C1CC1)c1cc(Cl)c(Cl)s1` (stereo not drawn) [CMP9, reference compound], the efficacy in [3] (125 ppm of active ingredient) is on record as 30* %. The figures for the pest or weed control at 125 ppm (in series [3] (125 ppm of active ingredient); in the series on Uromyces appendiculatus; in series [2]) were 30%, less than 40% and 34%, respectively. For the same molecule, the pest or weed control at 31 ppm in series [1] (31 ppm of active ingredient) is less than 20%. For the same molecule, the pest or weed control at 500 ppm in [1] is 0%.

Take `COC(=O)C(NC(=O)c1cc(Br)c(Br)s1)C1CC1` (stereo not drawn) [CMP10, reference compound]: the pest or weed control at 31 ppm with Peronospora parasitica is less than 30%; in [1] (31 ppm of active ingredient) it was less than 30%; in the series with Uromyces appendiculatus, 0%. In addition, the pest or weed control at 125 ppm in series [2] is less than 40%.

As for `COC(=O)CC[C@H](NC(=O)c1cc(Cl)c(Cl)s1)C(=O)OC` [CMP12, reference compound], the pest or weed control at 125 ppm in [3] (125 ppm of active ingredient) is less than 20%. Also, the pest or weed control at 31 ppm in series [2] (31 ppm of active ingredient) is 10%.

In the case of `COC(=O)[C@H](CCCNC(=N)N)NC(=O)c1sc(Cl)c(Cl)c1C` [I.079], the chromatographic logP (as a rule, a lipophilicity value derived from retention on a column) in [4] was 1.68. The fold induction at 300 ppm in series [5] was greater than 2. For the same molecule, the pest or weed control at 31 ppm with Peronospora parasitica fell in the range of 80 to 89%; in series [1] (31 ppm of active ingredient), 70 to 79%. In addition, the pest or weed control at 125 ppm in the series with Peronospora parasitica was 90 to 100%. Further, the pest or weed control at 500 ppm with Peronospora parasitica is 90 to 100%; with Uromyces appendiculatus, 80 to 89%; in series [2], 70 to 79%. Besides, the inhibition at 5 ppm (in the series with Alternaria alternata; in series [6]; in series [7]) was no more than 30% in each case. Besides, the inhibition at 20 ppm in series [6], in series [7] and in series [8] was no more than 30% each time.

As to `CCSC(=O)C1(NC(=O)c2sc(Br)c(Br)c2C)CC1` [I.128], in series [4], the chromatographic logP came out at 3.81. Further, in [5], the fold induction at 75 ppm is greater than 2 and the fold induction at 300 ppm is greater than 2. Further, in the series on Peronospora parasitica, the pest or weed control at 125 ppm lay in the range of 90 to 100% and the pest or weed control at 500 ppm fell in the range of 90 to 100%. Further, in the series on Uromyces appendiculatus, the pest or weed control at 500 ppm was 90 to 100%. Further, in series [2], the pest or weed control at 500 ppm lay within 70 to 79%.

In [4], `Cc1c(C(=O)NC2(C(=O)O)CCC2)sc(Br)c1Br` [I.137] had a chromatographic logP of 2.63. In addition, the fold induction at 75 ppm in series [5] is greater than 2. Also, in [5], the fold induction at 300 ppm was greater than 2. Besides, the pest or weed control at 500 ppm lay in the range of 90 to 100% in [3]; 90 to 100% with Peronospora parasitica; 90 to 100% in series [1]; 90 to 100% in the series on Uromyces appendiculatus; 70 to 79% in [2]. The pest or weed control at 31 ppm in the series on Peronospora parasitica lay within 70 to 79%. Also, the pest or weed control at 125 ppm (with Peronospora parasitica; in series [1]; with Uromyces appendiculatus) was 90 to 100% in each case.

In series [4], `Cc1c(C(=O)NC2(C(=O)O)CCC2)sc(Cl)c1Cl` [I.175] returned a chromatographic logP of 2.62. Further, the fold induction at 75 ppm in [5] was greater than 2. For the same molecule, in series [5], the fold induction at 300 ppm is greater than 2. Further, the pest or weed control at 125 ppm in series [3] (125 ppm of active ingredient) lay in the range of 70 to 79%; with Peronospora parasitica, 90 to 100%; in [1] it was 80 to 89%; in the series with Uromyces appendiculatus it was 70 to 79%. Moreover, the pest or weed control at 31 ppm with Peronospora parasitica lay in the range of 90 to 100%; in series [1] (31 ppm of active ingredient), 70 to 79%. The inhibition at 5 ppm (with Alternaria alternata; in series [6]; in series [7]) was no more than 30% in each case. For the same molecule, the inhibition at 20 ppm (in the series with Alternaria alternata; in series [6]; in [7]; in series [8]) was no more than 30% in each case.

`COC(=O)C(C)(C)NC(=O)c1sc(Cl)c(Cl)c1C` [I.176] had a chromatographic logP in series [4] of 3.16. The fold induction at 75 ppm in [5] was greater than 2. In [5], the fold induction at 300 ppm was greater than 2. The pest or weed control at 31 ppm was 70 to 79% with Peronospora parasitica and 90 to 100% in the series with Uromyces appendiculatus. In addition, the figures for the pest or weed control at 125 ppm (in the series on Peronospora parasitica; in the series with Uromyces appendiculatus; in series [2]) were 90 to 100%, 90 to 100% and 70 to 79%, respectively. Moreover, the inhibition at 5 ppm (with Alternaria alternata; in series [6]; in series [7]) was no more than 30% each time. In addition, the inhibition at 20 ppm (with Alternaria alternata; in series [7]; in series [8]) was no more than 30% each time.
